Measured values: patent publication US12612599B2, “Compositions and methods for microglia replacement therapy” (Savanna Biotherapeutics, Inc., priority 2018, dated 2026)

tested on: bone marrow derived macrophages (BMDMs) expressing human CSF1R variants; test: In vitro survival assay of retrovirally transduced bone marrow derived macrophages expressing CSF1R variants under PLX3397; type: cell-based, mouse; conditions: PLX3397 100 nM, 48 hours, CellTiter-Glo 2; compared to cells expressing WT CSF1R; FIG. 23

Question: “D796A: human CSF1R variant, SEQ ID NO: 12” was tested. Which “ratio between number of cells following treatment with CSF1R inhibitor (PLX-3397) + CSF1 and number of cells following complete deprivation of CSF1” value did it give?
Answer: higher ratio than cells expressing WT CSF1R

Question: Which “ratio between number of cells following treatment with CSF1R inhibitor (PLX-3397) + CSF1 and number of cells following complete deprivation of CSF1” value does the source give for “G795A: human CSF1R variant, SEQ ID NO: 10” here?
Answer: higher ratio than cells expressing WT CSF1R

Question: Which “ratio between number of cells following treatment with CSF1R inhibitor (PLX-3397) + CSF1 and number of cells following complete deprivation of CSF1” value does the source give for “M637L: human CSF1R variant, SEQ ID NO: 11” here?
Answer: higher ratio than cells expressing WT CSF1R

Question: For “Y546F: human CSF1R variant, SEQ ID NO: 14”, which “ratio between number of cells following treatment with CSF1R inhibitor (PLX-3397) + CSF1 and number of cells following complete deprivation of CSF1” value is on record?
Answer: higher ratio than cells expressing WT CSF1R
